In patent publication US20090304692A1, “TRIAZINE COMPOUNDS AS PI3 KINASE AND MTOR INHIBITORS” (Wyeth, priority 2008, published 2009):
Values joined by “and” are separate entries in the source; they are usually repeats but may differ in a detail not shown here. Identical values can stand only once. Like-named read-outs stand apart in the source and are kept apart here.

Experiments:
[1] = target: PI3K-α (Homo sapiens, UniProt P42336); assay: PI3K-alpha fluorescence polarization assay; details: read-out: IC50 PI3Kα
PI3K-α, sequence (P42336 whole entry, species assumed): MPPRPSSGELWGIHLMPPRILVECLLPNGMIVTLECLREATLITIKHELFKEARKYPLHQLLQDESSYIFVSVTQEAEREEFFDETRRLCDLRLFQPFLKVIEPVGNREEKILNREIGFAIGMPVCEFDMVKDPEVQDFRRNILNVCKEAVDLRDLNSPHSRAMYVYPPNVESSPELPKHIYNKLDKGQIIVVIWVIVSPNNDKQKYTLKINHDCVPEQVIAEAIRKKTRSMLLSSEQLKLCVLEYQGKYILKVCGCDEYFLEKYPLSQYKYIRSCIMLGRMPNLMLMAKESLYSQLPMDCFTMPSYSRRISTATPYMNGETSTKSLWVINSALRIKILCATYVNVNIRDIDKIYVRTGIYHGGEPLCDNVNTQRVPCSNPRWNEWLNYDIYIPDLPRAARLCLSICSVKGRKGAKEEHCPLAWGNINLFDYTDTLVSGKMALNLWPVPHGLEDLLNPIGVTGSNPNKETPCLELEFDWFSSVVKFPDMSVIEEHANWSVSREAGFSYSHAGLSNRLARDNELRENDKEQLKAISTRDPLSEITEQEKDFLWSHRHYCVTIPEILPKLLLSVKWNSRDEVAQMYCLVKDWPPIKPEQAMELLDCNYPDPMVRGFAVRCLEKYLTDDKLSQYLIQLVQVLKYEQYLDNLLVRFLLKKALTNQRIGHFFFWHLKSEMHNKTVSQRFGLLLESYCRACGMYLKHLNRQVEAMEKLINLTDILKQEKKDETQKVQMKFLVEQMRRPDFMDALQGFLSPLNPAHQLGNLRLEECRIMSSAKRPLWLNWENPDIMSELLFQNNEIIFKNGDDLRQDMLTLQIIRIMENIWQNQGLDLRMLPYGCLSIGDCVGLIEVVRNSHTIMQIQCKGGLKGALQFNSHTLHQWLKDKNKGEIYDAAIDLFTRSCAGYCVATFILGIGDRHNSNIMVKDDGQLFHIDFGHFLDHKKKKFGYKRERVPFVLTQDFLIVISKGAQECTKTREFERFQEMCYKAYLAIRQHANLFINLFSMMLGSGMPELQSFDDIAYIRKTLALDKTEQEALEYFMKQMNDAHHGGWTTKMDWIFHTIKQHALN
PI3K-α, sequence (P27986 whole entry partner, species assumed): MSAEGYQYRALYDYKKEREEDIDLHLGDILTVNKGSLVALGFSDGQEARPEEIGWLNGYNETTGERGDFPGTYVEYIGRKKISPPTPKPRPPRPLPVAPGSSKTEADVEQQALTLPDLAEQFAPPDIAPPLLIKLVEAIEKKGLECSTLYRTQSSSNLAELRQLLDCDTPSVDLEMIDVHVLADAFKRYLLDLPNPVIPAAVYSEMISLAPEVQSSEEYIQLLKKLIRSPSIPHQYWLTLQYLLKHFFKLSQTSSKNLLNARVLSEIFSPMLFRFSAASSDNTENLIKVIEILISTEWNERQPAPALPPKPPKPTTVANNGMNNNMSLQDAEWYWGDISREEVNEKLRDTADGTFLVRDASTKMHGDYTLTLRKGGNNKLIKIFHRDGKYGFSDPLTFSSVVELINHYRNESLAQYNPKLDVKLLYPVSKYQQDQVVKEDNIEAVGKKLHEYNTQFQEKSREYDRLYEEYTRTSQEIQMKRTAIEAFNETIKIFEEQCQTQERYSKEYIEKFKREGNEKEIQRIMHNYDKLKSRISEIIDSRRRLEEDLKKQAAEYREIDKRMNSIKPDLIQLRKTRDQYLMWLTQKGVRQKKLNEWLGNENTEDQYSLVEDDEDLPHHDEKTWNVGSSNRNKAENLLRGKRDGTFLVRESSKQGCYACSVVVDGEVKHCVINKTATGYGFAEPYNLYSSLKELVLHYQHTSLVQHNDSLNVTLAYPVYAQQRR

[2] = system: human breast MDA-MB-361 tumor cell line; assay: In vitro cell culture growth assay (MTS), MDA-MB-361; type: cell-based; details: Homo sapiens, three days after drug treatment, read-out: IC50 MDA-MB-361
[3] = target: Human mTOR (FLAG-TOR) (Homo sapiens, UniProt P42345); assay: mTOR kinase assay (DELFIA format, purified enzyme); type: biochemical
Human mTOR (FLAG-TOR), sequence (P42345 1360-2549 limits assumed): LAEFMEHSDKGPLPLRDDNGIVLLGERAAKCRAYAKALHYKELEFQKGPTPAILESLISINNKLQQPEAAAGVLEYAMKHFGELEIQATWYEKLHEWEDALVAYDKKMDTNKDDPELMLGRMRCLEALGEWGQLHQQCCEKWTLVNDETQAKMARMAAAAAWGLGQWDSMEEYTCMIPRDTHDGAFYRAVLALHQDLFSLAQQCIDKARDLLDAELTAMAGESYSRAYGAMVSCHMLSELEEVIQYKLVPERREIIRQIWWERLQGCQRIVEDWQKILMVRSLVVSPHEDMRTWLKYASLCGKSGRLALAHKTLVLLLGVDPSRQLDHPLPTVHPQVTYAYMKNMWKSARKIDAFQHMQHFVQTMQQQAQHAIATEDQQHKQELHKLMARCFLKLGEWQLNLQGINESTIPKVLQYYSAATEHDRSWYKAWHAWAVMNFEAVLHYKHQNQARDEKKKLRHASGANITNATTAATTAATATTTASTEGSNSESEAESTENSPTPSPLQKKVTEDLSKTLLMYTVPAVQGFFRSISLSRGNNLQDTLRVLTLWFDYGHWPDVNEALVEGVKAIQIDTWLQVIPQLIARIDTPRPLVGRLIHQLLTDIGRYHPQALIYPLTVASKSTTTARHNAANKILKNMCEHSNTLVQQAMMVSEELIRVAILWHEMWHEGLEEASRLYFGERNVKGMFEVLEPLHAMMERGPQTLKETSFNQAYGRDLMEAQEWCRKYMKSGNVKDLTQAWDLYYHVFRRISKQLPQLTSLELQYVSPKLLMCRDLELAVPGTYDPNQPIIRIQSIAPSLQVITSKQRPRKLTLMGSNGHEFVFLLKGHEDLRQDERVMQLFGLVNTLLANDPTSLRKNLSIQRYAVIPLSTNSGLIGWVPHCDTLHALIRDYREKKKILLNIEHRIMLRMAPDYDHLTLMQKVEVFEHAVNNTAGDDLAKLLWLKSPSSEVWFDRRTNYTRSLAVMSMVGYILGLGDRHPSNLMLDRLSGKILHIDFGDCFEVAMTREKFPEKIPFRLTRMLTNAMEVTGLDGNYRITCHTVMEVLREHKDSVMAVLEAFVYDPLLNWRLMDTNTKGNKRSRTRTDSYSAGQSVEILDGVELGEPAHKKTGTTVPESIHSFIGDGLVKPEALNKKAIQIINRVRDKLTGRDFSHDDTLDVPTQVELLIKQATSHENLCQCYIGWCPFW

[4] = system: human prostate PC3-mm2 tumor cell line; assay: In vitro cell culture growth assay (MTS), PC3-mm2; type: cell-based; details: Homo sapiens, PC3MM2, 72 h, three days after drug treatment, read-out: IC50 PC3-mm2
[5] = target: PI3K-γ (Homo sapiens, UniProt P48736); assay: PI3K-gamma fluorescence polarization assay; details: read-out: IC50 PI3Kγ
PI3K-γ, sequence (P48736 whole entry, species assumed): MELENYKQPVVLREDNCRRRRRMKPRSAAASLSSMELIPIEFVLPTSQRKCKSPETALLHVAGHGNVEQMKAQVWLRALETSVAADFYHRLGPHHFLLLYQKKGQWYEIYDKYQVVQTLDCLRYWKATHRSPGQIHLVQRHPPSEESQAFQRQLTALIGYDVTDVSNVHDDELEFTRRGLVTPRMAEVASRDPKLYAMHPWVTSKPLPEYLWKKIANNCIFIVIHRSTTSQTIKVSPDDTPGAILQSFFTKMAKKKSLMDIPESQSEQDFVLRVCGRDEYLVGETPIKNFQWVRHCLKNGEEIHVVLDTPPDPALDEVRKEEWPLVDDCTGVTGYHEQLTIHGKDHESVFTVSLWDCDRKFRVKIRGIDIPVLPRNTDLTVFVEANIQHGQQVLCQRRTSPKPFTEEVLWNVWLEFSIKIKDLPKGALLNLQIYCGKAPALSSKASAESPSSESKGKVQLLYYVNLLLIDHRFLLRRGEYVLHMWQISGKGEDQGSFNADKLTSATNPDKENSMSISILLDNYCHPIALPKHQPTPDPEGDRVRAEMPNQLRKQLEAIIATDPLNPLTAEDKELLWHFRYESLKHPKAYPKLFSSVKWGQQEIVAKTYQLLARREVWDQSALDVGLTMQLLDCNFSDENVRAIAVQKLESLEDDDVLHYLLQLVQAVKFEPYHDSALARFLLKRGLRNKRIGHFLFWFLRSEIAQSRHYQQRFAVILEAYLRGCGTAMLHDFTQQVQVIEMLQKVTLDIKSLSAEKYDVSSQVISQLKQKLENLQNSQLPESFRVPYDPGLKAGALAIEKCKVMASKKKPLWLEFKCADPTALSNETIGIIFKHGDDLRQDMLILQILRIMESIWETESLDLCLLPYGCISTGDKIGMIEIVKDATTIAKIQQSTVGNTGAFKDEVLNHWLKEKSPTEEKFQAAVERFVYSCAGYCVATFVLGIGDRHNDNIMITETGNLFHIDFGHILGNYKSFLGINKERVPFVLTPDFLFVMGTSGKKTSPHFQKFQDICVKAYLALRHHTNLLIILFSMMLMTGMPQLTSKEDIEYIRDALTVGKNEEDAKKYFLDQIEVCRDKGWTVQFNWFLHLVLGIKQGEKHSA

[6] = MDA-MB-361, 72 h, MTS cell growth assay, MDA-MB-361 cells
[7] = MDA-MB-361, 72 h, MTS cell growth assay
[8] = MTS cell growth assay, PC3-mm2 cells
[9] = 72 h, MTS cell growth assay, MDA-MB-361 cells

IC50 [1] [nM] | IC50 [2, 6] [nM] | IC50 [2, 7] [nM] | IC50 ([3]; read-out: IC50 mTOR) | IC50 [4, 8] [nM] | IC50 ([4]; MTS cell growth assay) [nM] | IC50 [5] [nM] | IC50 [2, 9] [nM] | SMILES | also measured
10 |  | 150 | 12 nM and 15.5 nM | 237 | 237 | 48 |  | CCc1nc(-c2ccc(NC(=O)Nc3ccc(N4CCC(N(C)C)CC4)cc3)cc2)nc(N2CCOCC2)n1 [Example 341, 1-{4-[4-(dimethylamino)piperidin-1-yl]phenyl}-3-[4-(4-ethyl-6-morpholin-4-yl-1,3,5-triazin-2-yl)phenyl]urea] | IC50 ([1]; listed as 529): 10.5 nM; IC50 ([5]; listed as 529): 48.5 nM
1 |  | 23 | 3.6 nM |  | 61 | 10 |  | CCc1nc(-c2ccc(NC(=O)Nc3ccc(C(=O)N4CCC(N(C)C)CC4)cc3)cc2)nc(N2CCOCC2)n1 [Example 238, 1-(4-{[4-(dimethylamino)piperidin-1-yl]carbonyl}phenyl)-3-[4-(4-ethyl-6-morpholin-4-yl-1,3,5-triazin-2-yl)phenyl]urea] | 
15 |  | 151 | 5.05 nM |  | 267 | 83 |  | CC(=O)c1cccc(NC(=O)Nc2ccc(-c3nc(OC4CCOCC4)nc(N4CCOCC4)n3)cc2)c1 [Example 65, 1-(3-acetylphenyl)-3-{4-[4-morpholin-4-yl-6-(tetrahydro-2H-pyran-4-yloxy)-1,3,5-triazin-2-yl]phenyl}urea] | 
< 1.9 |  |  | 0.12 nM | 8 |  | 10 | 1 | CN(C)CCNC(=O)c1ccc(NC(=O)Nc2ccc(-c3nc(C4CCOCC4)nc(N4CCOCC4)n3)cc2)cc1 [Example 512, N-[2-(dimethylamino)ethyl]-4-[({4-[4-morpholin-4-yl-6-(tetrahydro-2H-pyran-4-yl)-1,3,5-triazin-2-yl]phenyl}carbamoyl)amino]benzamide] | 
18.5 |  |  | 2 nM | 55 |  | 102 | 16 | CCCCN1CCN(C(=O)c2ccc(NC(=O)Nc3ccc(-c4nc(N5CCOC[C@H]5C)nc(N5CCOC[C@@H]5C)n4)cc3)cc2)CC1 [Example 627, 1-{4-[(4-butylpiperazin-1-yl)carbonyl]phenyl}-3-(4-{4-[(3R)-3-methylmorpholin-4-yl]-6-[(3S)-3-methylmorpholin-4-yl]-1,3,5-triazin-2-yl}phenyl)urea] | 
1.8 | 22.5 |  | 1.35 nM | 25.5 |  | 10 |  | CN(C)C(=O)Nc1ccc(NC(=O)Nc2ccc(-c3nc(N4CCOCC4)nc(N4CCOCC4)n3)cc2)cc1 [Example 504, 1-{4-[(dimethylcarbamoyl)amino]phenyl}-3-[4-(4,6-dimorpholin-4-yl-1,3,5-triazin-2-yl)phenyl]urea] | 
26.5 |  |  | 1 nM | 123 |  | 116 | 88 | COC(=O)c1ccc(NC(=O)Nc2ccc(-c3nc(N4CCOCC4)nc(N4CCOC[C@@H]4C)n3)cc2)cc1 [Example 615, methyl 4-{[(4-{4-[(3S)-3-methylmorpholin-4-yl]-6-morpholin-4-yl-1,3,5-triazin-2-yl}phenyl)carbamoyl]amino}benzoate] | 
8.5 | 17 |  | 17 nM | 137 |  | 50.5 |  | CC(C)N1CCN(C(=O)c2ccc(NC(=O)Nc3ccc(-c4nc(N5CCCC5)nc(N5CCOCC5)n4)cc3)cc2)CC1 [Example 603, 1-(4-{[4-(1-methylethyl)piperazin-1-yl]carbonyl}phenyl)-3-[4-(4-morpholin-4-yl-6-pyrrolidin-1-yl-1,3,5-triazin-2-yl)phenyl]urea] | 
3.5 | < 31 |  | 42 nM | 262 |  | 15.5 |  | CN1CCN(C(=O)c2ccc(NC(=O)Nc3ccc(-c4nc(-c5ccccc5)nc(N5CCOCC5)n4)cc3)cc2)CC1 [Example 543, 1-{4-[(4-methylpiperazin-1-yl)carbonyl]phenyl}-3-[4-(4-morpholin-4-yl-6-phenyl-1,3,5-triazin-2-yl)phenyl]urea] | 
7 | 142 | 142 | 70 nM and 70.5 nM | 373 | 373 | 98 |  | Cc1ccc(-c2nc(-c3ccc(NC(=O)Nc4ccc(C(=O)N5CCN(C)CC5)cc4)cc3)nc(N3CCOCC3)n2)cc1 [Example 337, 1-{4-[4-(4-methylphenyl)-6-morpholin-4-yl-1,3,5-triazin-2-yl]phenyl}-3-{4-[(4-methylpiperazin-1-yl)carbonyl]phenyl}urea] | IC50 ([5]; listed as 533): 98.5 nM

The remaining lines, values behind:

SMILES | IC50 [1] [nM] | IC50 [2, 6] [nM] | IC50 [2, 7] [nM] | IC50 ([3]; read-out: IC50 mTOR) | IC50 [4, 8] [nM] | IC50 ([4]; MTS cell growth assay) [nM] | IC50 [5] [nM] | IC50 [2, 9] [nM] | also measured
CN1CCN(c2ccc(NC(=O)Nc3ccc(-c4nc(N5CCOCC5)nc(N5C6CCC5COC6)n4)cc3)cc2)CC1 [Example 43, 1-[4-(4-methylpiperazin-1-yl)phenyl]-3-{4-[4-morpholin-4-yl-6-(3-oxa-8-azabicyclo[3.2.1]oct-8-yl)-1,3,5-triazin-2-yl]phenyl}urea] | 28 | 35.8 | 35.8 | 0.77 nM and 1.65 nM and 1.17 nM | 40 | 40 | 35 |  | IC50 ([1]; listed as 229): 19 nM; IC50 ([1]; listed as 678): 21.3 nM; IC50 ([5]; listed as 229): 70 nM; IC50 ([5]; listed as 678): 45.3 nM
CC(C)(C)OC(=O)N1CC(Nc2nc(-c3ccc(NC(=O)Nc4ccccc4)cc3)nc(N3CCOCC3)n2)C1 [Example 14, tert-butyl 3-[(4-morpholin-4-yl-6-{4-[(phenylcarbamoyl)amino]phenyl}-1,3,5-triazin-2-yl)amino]azetidine-1-carboxylate] | 25 |  | 376 | 8.45 nM |  | 590 | 154 |  | 
O=C(Nc1ccncc1)Nc1ccc(-c2nc(N3CCOCC3)nc(N3C4COCC3COC4)n2)cc1 [Example 765, 1-{4-[4-(3,7-dioxa-9-azabicyclo[3.3.1]non-9-yl)-6-morpholin-4-yl-1,3,5-triazin-2-yl]phenyl}-3-pyridin-4-ylurea] | 8.5 |  |  | 0.195 nM | 27 |  | 78.5 | 21 | 
CC(C)N1CCN(C(=O)c2ccc(NC(=O)Nc3ccc(-c4nc(N5CCOCC5)nc(N5C6COCC5COC6)n4)cc3)cc2)CC1 [Example 773, 1-{4-[4-(3,7-dioxa-9-azabicyclo[3.3.1]non-9-yl)-6-morpholin-4-yl-1,3,5-triazin-2-yl]phenyl}-3-{4-[(4-isopropylpiperazin-1-yl)carbonyl]phenyl}urea] | 3 | 4 |  | 0.305 nM | 6 |  | 36.5 |  | 
O=C(Nc1ccc(F)cc1)Nc1ccc(-c2nc(N3CCOCC3)nc(N3C4CCC3COC4)n2)cc1 [Example 37, 1-(4-fluorophenyl)-3-{4-[4-morpholin-4-yl-6-(3-oxa-8-azabicyclo[3.2.1]oct-8-yl)-1,3,5-triazin-2-yl]phenyl}urea] | 39 | 98 | 98 |  | 176 | 176 | 155 |  | IC50 ([1]; listed as 672): 39.5 nM; IC50 ([3]; IC50 mTOR): 1.95 nM; IC50 ([5]; listed as 672): 154 nM
O=C(Nc1ccc(-c2nc(N3CCOCC3)nc(N3C4CCC3COC4)n2)cc1)Nc1ccnc(Cl)c1 [Example 746, 1-(2-chloropyridin-4-yl)-3-{4-[4-morpholin-4-yl-6-(3-oxa-8-azabicyclo[3.2.1]oct-8-yl)-1,3,5-triazin-2-yl]phenyl}urea] | 23.5 |  |  | 1.27 nM | 118 |  | 99 | 93 | 
O=C(Nc1ccc(C(=O)NCCN2CCCCC2)cc1)Nc1ccc(-c2nc(N3CCOCC3)nc(N3C4CCCC3COC4)n2)cc1 [Example 799, 4-[({4-[4-morpholin-4-yl-6-(3-oxa-9-azabicyclo[3.3.1]non-9-yl)-1,3,5-triazin-2-yl]phenyl}carbamoyl)amino]-N-(2-piperidin-1-ylethyl)benzamide] | 5 |  |  | 0.5 nM |  |  | 71.5 |  | IC50 ([2]; 72 h, MDA-MB-361 cells, MTS): < 3.2 nM; IC50 ([4]; PC3-mm2 cells, MTS): 24 nM
CN1CCN(Nc2nc(-c3ccc(NC(=O)Nc4ccccc4)cc3)nc(N3CCOCC3)n2)CC1 [Example 686, 1-(4-{4-[(4-methylpiperazin-1-yl)amino]-6-morpholin-4-yl-1,3,5-triazin-2-yl}phenyl)-3-phenylurea] | 77 |  |  | 26 nM | 1100 |  | 540 | 569 | 
O=C(Nc1ccncc1)Nc1ccc(-c2nc(N3CCOCC3)nc(N3C4COCC3C(OCc3ccccc3)C4)n2)cc1 (stereo not drawn) [Example 819, 1-(4-{4-[6-(benzyloxy)-3-oxa-8-azabicyclo[3.2.1]oct-8-yl]-6-morpholin-4-yl-1,3,5-triazin-2-yl}phenyl)-3-pyridin-4-ylurea] | 44 |  |  | 17 nM |  |  | 358 |  | IC50 ([2]; 72 h, MDA-MB-361 cells, MTS): 442 nM; IC50 ([4]; PC3-mm2 cells, MTS): 768 nM
